Test results reported in publication PMC2728345 (Toxicology and applied pharmacology, 2009).
Positions count from the first letter of the chain named. Entries after “also recorded” stand apart in the source; their conditions may differ. Where two headings read alike, the source gives them in different places.

Experiments:
human PXR variant S208F [1] = biological target: T1, human PXR variant S208F (Homo sapiens, UniProt O75469, S208F); conditions: HepG2 cotransfection, 10 µM, 24 h; words: compared with wild-type PXR
T1 sequence (O75469 1-434 S208F): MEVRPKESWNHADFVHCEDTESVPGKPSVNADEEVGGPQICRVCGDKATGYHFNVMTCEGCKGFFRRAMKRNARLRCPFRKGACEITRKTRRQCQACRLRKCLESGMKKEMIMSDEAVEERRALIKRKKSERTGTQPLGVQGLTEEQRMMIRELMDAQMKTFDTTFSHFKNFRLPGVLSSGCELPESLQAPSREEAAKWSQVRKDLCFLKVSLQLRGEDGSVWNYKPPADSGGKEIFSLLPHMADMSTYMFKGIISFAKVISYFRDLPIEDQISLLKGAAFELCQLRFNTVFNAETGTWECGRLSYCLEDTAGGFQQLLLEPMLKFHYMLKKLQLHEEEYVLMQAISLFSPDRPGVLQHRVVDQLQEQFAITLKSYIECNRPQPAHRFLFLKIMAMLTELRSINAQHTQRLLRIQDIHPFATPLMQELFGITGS

human PXR [2] = biological target: T2, human PXR (Homo sapiens, UniProt O75469); experiment: Activation of human PXR in stable line hPXR-HRE; conditions: 10 µM, 24 h, ratio over DMSO
T2 sequence (O75469 1-434): T1 sequence (O75469 1-434 S208F) with F208S

[3] = 50 µg protein, pyrethroid 200 µM mixed with equal volume, Tris-HCl pH 7.4, 37°C
human PXR variant L412I = biological target: T3, human PXR variant L412I (Homo sapiens, UniProt O75469, L412I); conditions: HepG2 cotransfection, 10 µM, 24 h
T3 sequence (O75469 1-434 L412I): T1 sequence (O75469 1-434 S208F) with F208S, L412I

HCE2 = HCE2 expression in human primary hepatocytes; type: cell-based; conditions: 10 µM, 24 h
carboxylesterase HCE1 = biological target: T4, carboxylesterase HCE1 (Homo sapiens, UniProt P23141); experiment: Hydrolysis of pyrethroids by recombinant HCE1; type: in vitro ADME; conditions: recombinant HCE1 vs HCE2 lysates, Tris-HCl pH 7.4
T4 sequence (P23141 18-567): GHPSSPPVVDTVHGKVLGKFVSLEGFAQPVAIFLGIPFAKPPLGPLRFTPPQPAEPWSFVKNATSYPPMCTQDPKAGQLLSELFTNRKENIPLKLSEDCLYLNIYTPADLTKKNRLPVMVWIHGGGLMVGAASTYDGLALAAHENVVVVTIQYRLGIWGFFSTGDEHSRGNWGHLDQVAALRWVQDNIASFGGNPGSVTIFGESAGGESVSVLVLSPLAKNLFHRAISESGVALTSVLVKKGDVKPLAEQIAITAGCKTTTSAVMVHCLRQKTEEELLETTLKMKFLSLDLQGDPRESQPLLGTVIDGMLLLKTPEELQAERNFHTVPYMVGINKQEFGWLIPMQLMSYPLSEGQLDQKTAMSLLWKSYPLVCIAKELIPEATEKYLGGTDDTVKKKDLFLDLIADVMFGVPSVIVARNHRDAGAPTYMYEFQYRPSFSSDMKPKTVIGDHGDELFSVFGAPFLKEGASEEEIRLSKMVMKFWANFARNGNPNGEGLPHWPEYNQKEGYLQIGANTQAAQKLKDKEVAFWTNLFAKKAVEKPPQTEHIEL

human PXR [4] = biological target: T2, human PXR; experiment: Activation of human PXR in hPXR-HRE cells transfected with HCE1, HCE2 or vector; conditions: 10 µM; for effect of carboxylesterase cotransfection on PXR activation: hPXR-HRE cells transfected with HCE1 or HCE2 vs vector; for decrease in PXR activation, HCE1 versus HCE2 cotransfection: hPXR-HRE cells
rats or mice = conditions: in vivo, po; cited from earlier work
CYP3A4 = CYP3A4 expression in human primary hepatocytes; conditions: 10 µM, 24 h
human PXR variant S208F [5] = biological target: T1, human PXR variant S208F
carboxylesterase HCE2 [6] = biological target: T5, carboxylesterase HCE2 (Homo sapiens, UniProt O00748); experiment: Hydrolysis of pyrethroids by recombinant HCE2; type: in vitro ADME; conditions: recombinant HCE2 vs HCE1 lysates, Tris-HCl pH 7.4
T5 sequence (O00748 27-559): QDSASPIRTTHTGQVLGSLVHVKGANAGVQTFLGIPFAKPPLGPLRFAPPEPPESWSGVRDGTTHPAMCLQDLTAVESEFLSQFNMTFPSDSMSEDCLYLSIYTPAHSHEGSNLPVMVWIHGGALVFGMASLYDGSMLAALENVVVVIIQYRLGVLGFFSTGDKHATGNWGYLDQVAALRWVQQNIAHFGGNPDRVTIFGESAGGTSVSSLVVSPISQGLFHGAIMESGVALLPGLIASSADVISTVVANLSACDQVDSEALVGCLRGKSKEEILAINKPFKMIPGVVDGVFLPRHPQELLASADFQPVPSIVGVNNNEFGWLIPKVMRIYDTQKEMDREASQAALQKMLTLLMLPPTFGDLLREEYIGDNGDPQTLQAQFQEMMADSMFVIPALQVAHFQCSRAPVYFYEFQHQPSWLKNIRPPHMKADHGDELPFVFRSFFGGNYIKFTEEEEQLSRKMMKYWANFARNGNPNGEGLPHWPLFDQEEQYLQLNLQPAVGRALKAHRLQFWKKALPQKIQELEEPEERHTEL

carboxylesterase HCE2 [7] = biological target: T5, carboxylesterase HCE2; conditions: Tris-HCl buffer pH 8.0; ref Nishi et al. (2006); cited from earlier work

Structure (SMILES)	activation of PXR variant S208F (human PXR variant S208F [1])	activation of human PXR (human PXR [2])	hydrolysis by pooled human liver microsomes (rate group / extent, in words) [3]	activation of PXR variant L412I compared with wild-type PXR (human PXR variant L412I)	HCE2 protein (Western blotting) (HCE2)	preference for hydrolysis by HCE1 over HCE2 (words) (carboxylesterase HCE1)	effect of carboxylesterase cotransfection on PXR activation (human PXR [4])	decrease in PXR activation, HCE1 versus HCE2 cotransfection (human PXR [4])	LD50 (rats or mice) [mg/kg]	CYP3A4 protein (Western blotting) (CYP3A4)	activation of PXR variant S208F (human PXR variant S208F [5]) [fold]	preference for hydrolysis by HCE2 over HCE1 (carboxylesterase HCE2 [6])	selective hydrolysis HCE2 vs HCE1 (literature) (carboxylesterase HCE2 [7])
CC1(C)[C@H](C(=O)O[C@H](C#N)c2cccc(Oc3ccccc3)c2)[C@@H]1/C=C(\Cl)C(F)(F)F (racemic) [lambda-Cyhalothrin]	no differences	stronger activator of human PXR	moderate rate	less extent than the wild-type PXR	but not HCE1 or HCE2 protein	HCE1 preferably hydrolyzed; also recorded: much more active than HCE2	markedly decreased	much more decreases	56	significant increase			
CC1(C)C(C=C(Cl)Cl)C1C(=O)OC(C#N)c1ccc(F)c(Oc2ccccc2)c1 (stereo not shown) [Baythroid]			moderate rate								10.6	HCE2 preferably hydrolyzed	
CC1(C)[C@H](C(=O)O[C@H](C#N)c2cccc(Oc3ccccc3)c2)[C@@H]1C=C(Br)Br [Deltamethrin]			high rate			much more active than HCE2; also recorded: preferably hydrolyzed by HCE1	markedly decreased	much more decreases	535				better substrate of HCE2
